Assay results taken from patent US7449463B2, “Morpholinyl containing benzimidazoles as inhibitors of respiratory syncytial virus replication” (Tibotec Pharmaceuticals Ltd., priority 2003, dated 2008).

System: Respiratory Syncytial Virus
Test: microbe, parasite or virus in culture
Format: cell-based
From the text: In vitro Screening for Activity against Respiratory Syncytial Virus.
The percent protection against cytopathology caused by viruses (antiviral activity or EC50) achieved by tested compounds and their cytotoxicity (CC50) are both calculated from dose-response curves. The selectivity of the antiviral effect is represented by the selectivity index (SI), calculated by dividing the CC50 (cytotoxic dose for 50% of the cells) by the EC50 (antiviral activity for 50% of the cells).
Automated tetrazolium-based colorimetric assays were used for determination of EC50 and CC50 of test compounds. Flat-bottom, 96-well plastic microtiter trays were filled with 180 μl of Eagle's Basal Medium, supplemented with 5% FCS (0% for FLU) and 20 mM Hepes buffer. Subsequently, stock solutions (7.8× final test concentration) of compounds were added in 45 μl volumes to a series of triplicate wells so as to allow simultaneous evaluation of their effects on virus- and mock-infected cells. Five five-fold dilutions were made directly in the microtiter trays using a robot system. Untreated virus controls, and HeLa cell controls were included in each test. Approximately 100 TCID50 of Respiratory Syncytial Virus was added to two of the three rows in a volume of 50 μl. The same volume of medium was added to the third row to measure the cytotoxicity of the compounds at the same concentrations as those used to measure the antiviral activity. After two hours of incubation, a suspension (4×10^5 cells/ml) of HeLa cells was added to all wells in a volume of 50 μl. The cultures were incubated at 37° C. in a 5% CO2 atmosphere. Seven days after infection the cytotoxicity and the antiviral activity was examined spectrophotometrically. To each well of the microtiter tray, 25 μl of a solution of MTT (3-(4,5-dimethylthiazol-2-yl)-2,5-diphenyltetrazolium bromide) was added. The trays were further incubated at 37° C. for 2 hours, after which the medium was removed from each cup. Solubilization of the formazan crystals was achieved by adding 100 μl 2-propanol. Complete dissolution of the formazan crystals were obtained after the trays have been placed on a plate shaker for 10 min. Finally, the absorbances were read in an eight-channel computer-controlled photometer (Multiskan MCC, Flow Laboratories) at two wavelengths (540 and 690 nm). The absorbance measured at 690 nm was automatically subtracted from the absorbance at 540 nm, so as to eliminate the effects of non-specific absorption.

[1] = RSV-infected HeLa cells, MTT readout seven days after infection, −log of EC50 in molar units

Compound | Activity [1] | other results
2-[5,7-dimethyl-2-(2-morpholin-4-ylethyl-piperidin-4-ylamino)-benzoindazol-1-ylmethyl]-6-methyl-pyridin-3-ol [Compound 162] | 7.9 | –
4-{(3,5-Dimethyl-phenyl)-[3-(3-hydroxy-pyridin-2-ylmethyl)-2-(3-morpholin-4-yl-propylamino)-3H-benzoimidazol-5-ylmethyl]-amino}-butyramide [Compound 228] | – | Activity (pEC50 (−log of EC50 when expressed in molar units), protection against RSV cytopathology): 8.4
Cc1ccc(O)c(Cn2c(NCCCN3CCOCC3)nc3ccc(CNc4cc(C#N)ccc4CCO)cc32)n1 [Compound 1] | 10 | –
Cc1ccc(O)c(Cn2c(NCCCN3CCOCC3)nc3ccc(CNc4cc(Br)ccc4CCCO)cc32)n1 [Compound 2] | 10 | –
Cc1ccc(O)c(Cn2c(NCCCN3CCOCC3)nc3ccc(CNc4cc(Cl)ccc4CCCO)cc32)n1 [Compound 4] | 9.9 | –
Cc1ccc(OCCO)c(NCc2ccc3nc(NCCCN4CCOCC4)n(Cc4nc(C)ccc4O)c3c2)c1 [Compound 5] | 9.8 | –
C=Cc1ccc(CCO)c(NCc2ccc3nc(NCCCN4CCOCC4)n(Cc4nc(C)ccc4O)c3c2)c1 [Compound 6] | >9.6 | –
Cc1ccc(CCO)c(NCc2ccc3nc(NCCCN4CCOCC4)n(Cc4nc(C)ccc4O)c3c2)c1 [Compound 7] | 9.6 | –
COc1ccc(CCO)c(NCc2ccc3nc(NCCCN4CCOCC4)n(Cc4nc(C)ccc4O)c3c2)c1 [Compound 9] | 9.6 | –
C#Cc1ccc(CCO)c(NCc2ccc3nc(NCCCN4CCOCC4)n(Cc4nc(C)ccc4O)c3c2)c1 [Compound 10] | 9.6 | –
Cc1ccc(O)c(Cn2c(NCCCN3CCOCC3)nc3ccc(CNc4cc(Br)ccc4CCO)cc32)n1 [Compound 11] | 9.6 | –
Cc1ccc(O)c(Cn2c(NCCCN3CCOCC3)nc3ccc(CNc4cc(C(F)(F)F)ccc4CCCO)cc32)n1 [Compound 13] | 9.5 | –
COc1ccc(CCCO)c(NCc2ccc3nc(NCCCN4CCOCC4)n(Cc4nc(C)ccc4O)c3c2)c1 [Compound 14] | 9.4 | –
Cc1ccc(CCC(C)O)c(NCc2ccc3nc(NCCCN4CCOCC4)n(Cc4nc(C)ccc4O)c3c2)c1 (stereo not drawn) [Compound 15] | 9.3 | –
Cc1ccc(CCC(N)=O)c(NCc2ccc3nc(NCCCN4CCOCC4)n(Cc4nc(C)ccc4O)c3c2)c1 [Compound 16] | 9.3 | –
Cc1ccc(O)c(Cn2c(NCCCN3CCOCC3)nc3ccc(CNc4cc(C(C)C)ccc4CCO)cc32)n1 [Compound 17] | 9.3 | –
Cc1ccc(O)c(Cn2c(NCCCN3CCOCC3)nc3ccc(CNc4cc(F)ccc4CCO)cc32)n1 [Compound 18] | 9.6 | –
Cc1ccc(C=CCO)c(NCc2ccc3nc(NCCCN4CCOCC4)n(Cc4nc(C)ccc4O)c3c2)c1 [Compound 19] | 9.3 | –
Cc1ccc(CCCCO)c(NCc2ccc3nc(NCCCN4CCOCC4)n(Cc4nc(C)ccc4O)c3c2)c1 [Compound 20] | 9.2 | –

Compound | Activity [1] | other results
Cc1ccc(O)c(Cn2c(NCCCN3CCOCC3)nc3ccc(CNc4ccccc4CCO)cc32)n1 [Compound 22] | 9.1 | –
Cc1ccc(O)c(Cn2c(NCCCN3CCOCC3)nc3ccc(CNc4cccc(C)c4CCO)cc32)n1 [Compound 25] | 8.9 | –
Cc1ccc(O)c(Cn2c(NCCCN3CCOCC3)nc3ccc(CNc4cccc(Br)c4)cc32)n1 [Compound 26] | 8.7 | –
Cc1ccc(O)c(Cn2c(NCCCN3CCOCC3)nc3ccc(CNc4ccccc4C#N)cc32)n1 [Compound 27] | 8.7 | –
Cc1cccc(NCc2ccc3nc(NCCCN4CCOCC4)n(Cc4nc(C)ccc4O)c3c2)c1 [Compound 28] | 8.6 | –
Cc1ccc(O)c(Cn2c(NCCCN3CCOCC3)nc3ccc(CNc4ccccc4CO)cc32)n1 [Compound 29] | 8.6 | –
C#Cc1cccc(NCc2ccc3nc(NCCCN4CCOCC4)n(Cc4nc(C)ccc4O)c3c2)c1 [Compound 30] | 8.6 | –
Cc1ccc(O)c(Cn2c(NCCCN3CCOCC3)nc3ccc(CNc4cccc(Cl)c4)cc32)n1 [Compound 31] | 8.6 | –
Cc1ccc(O)c(Cn2c(NCCCN3CCOCC3)nc3ccc(CNc4ccccc4CCC(N)=O)cc32)n1 [Compound 33] | 8.6 | –
Cc1ccc(C#CCO)c(NCc2ccc3nc(NCCCN4CCOCC4)n(Cc4nc(C)ccc4O)c3c2)c1 [Compound 34, 2-[6-{[2-(3-Hydroxy-prop-1-ynyl)-5-methyl-phenylamino]-methyl}-2-(3-morpholin-4-yl-propylamino)-benzoimidazol-1-ylmethyl]-6-methyl-pyridin-3-ol] | 8.6 | –
Cc1ccc(O)c(Cn2c(NCCCN3CCOCC3)nc3ccc(CNc4cccc(F)c4)cc32)n1 [Compound 35] | 8.5 | –
Cc1ccc(O)c(Cn2c(NCCCN3CCOCC3)nc3ccc(CNc4cccc(OC(F)(F)F)c4)cc32)n1 [Compound 36] | 8.5 | –
Cc1ccc(O)c(Cn2c(NCCCN3CCOCC3)nc3ccc(CNc4ccc(S(N)(=O)=O)cc4)cc32)n1 [Compound 37] | 8.5 | –
Cc1ccc(O)c(Cn2c(NCCCN3CCOCC3)nc3ccc(CNc4ccc(C(N)=O)cc4)cc32)n1 [Compound 38] | 8.5 | –
Cc1ccc(NCCO)c(NCc2ccc3nc(NCCCN4CCOCC4)n(Cc4nc(C)ccc4O)c3c2)c1 [Compound 39] | 8.5 | –
Cc1ccc(C)c(NCc2ccc3nc(NCCCN4CCOCC4)n(Cc4nc(C)ccc4O)c3c2)c1 [Compound 40] | 8.4 | –
CCc1ccccc1NCc1ccc2nc(NCCCN3CCOCC3)n(Cc3nc(C)ccc3O)c2c1 [Compound 41] | 8.3 | –
Cc1ccc(O)c(Cn2c(NCCCN3CCOCC3)nc3ccc(CNc4ccccc4CCN4CCOCC4)cc32)n1 [Compound 42] | 8.3 | –
Cc1ccc(O)c(Cn2c(NCCCN3CCOCC3)nc3ccc(CNc4cccc(C)c4CO)cc32)n1 [Compound 43] | 8.2 | –

Compound | Activity [1] | other results
Cc1ccc(O)c(Cn2c(NCCCN3CCOCC3)nc3ccc(CNc4cc(C(N)=O)ccc4CCO)cc32)n1 [Compound 44] | 8.1 | –
Cc1ccc(O)c(Cn2c(NCCCN3CCOCC3)nc3ccc(CNc4ccccc4C(N)=O)cc32)n1 [Compound 45] | 7.9 | –
Cc1ccc(O)c(Cn2c(NCCCN3CCOCC3)nc3ccc(CNc4cccc(CCO)c4)cc32)n1 [Compound 47] | 7.9 | –
Cc1ccc(O)c(Cn2c(NCCCN3CCOCC3)nc3ccc(CNc4cc(S(C)(=O)=O)ccc4CCO)cc32)n1 [Compound 48] | – | EC50 (human respiratory syncytial virus, 168 h, RSV-infected HeLa cells, MTT readout seven days after infection, −log of EC50 in molar units): 20 nM
Cc1cc(C)cc(NCc2ccc3c(c2)nc(NCCCN2CCOCC2)n3Cc2nc(C)ccc2O)c1 [Compound 51] | 7.2 | –
Cc1ccc(O)c(Cn2c(NCCCN3CCOCC3)nc3ccc(CO)cc32)n1 [Compound 52] | 7.2 | –
Cc1ccc(O)c(Cn2c(NCCCN3CCOCC3)nc3cc(CO)ccc32)n1 [Compound 53] | 5.6 | –
Cc1cc(C)cc(N(CCCCO)Cc2ccc3nc(NCCCN4CCOCC4)n(Cc4nc(C)ccc4O)c3c2)c1 [Compound 61] | 9.5 | –
Cc1cc(C)cc(N(CCCO)Cc2ccc3nc(NCCCN4CCOCC4)n(Cc4nc(C)ccc4O)c3c2)c1 [Compound 63] | 9.3 | –
Cc1cc(C)cc(N(CCCCCO)Cc2ccc3nc(NCCCN4CCOCC4)n(Cc4nc(C)ccc4O)c3c2)c1 [Compound 64] | 9.3 | –
Cc1cc(C)cc(N(CCC(=O)O)Cc2ccc3nc(NCCCN4CCOCC4)n(Cc4nc(C)ccc4O)c3c2)c1 [Compound 69] | 8.7 | –
Cc1cc(C)cc(N(Cc2ccc3nc(NCCCN4CCOCC4)n(Cc4nc(C)ccc4O)c3c2)Cc2c[nH]cn2)c1 [Compound 81] | 8.9 | –
COCCN(Cc1ccc2nc(NCCCN3CCOCC3)n(Cc3nc(C)ccc3O)c2c1)c1cc(C)cc(C)c1 [Compound 82] | 8.6 | –
Cc1ccc(O)c(Cn2c(NCCCN3CCOCC3)nc3ccc(CN(CCO)c4cccc(Br)c4)cc32)n1 [Compound 85] | 9.3 | –
Cc1cccc(N(CCO)Cc2ccc3nc(NCCCN4CCOCC4)n(Cc4nc(C)ccc4O)c3c2)c1 [Compound 86] | 9.3 | –
Cc1ccc(O)c(Cn2c(NCCCN3CCOCC3)nc3ccc(CN(CCO)c4ccc(C#N)cc4)cc32)n1 [Compound 88] | 9.1 | –
Cc1cccc(N(CCCCO)Cc2ccc3nc(NCCCN4CCOCC4)n(Cc4nc(C)ccc4O)c3c2)c1 [Compound 92] | 8.8 | –
Cc1cccc(N(CCCO)Cc2ccc3nc(NCCCN4CCOCC4)n(Cc4nc(C)ccc4O)c3c2)c1 [Compound 93] | 8.7 | –
Cc1ccc(O)c(Cn2c(NCCCN3CCOCC3)nc3ccc(CN(CCCO)c4cccc(Br)c4)cc32)n1 [Compound 95] | 8.6 | –
